Values of other authors in patent publication US20170296470A1, “TWO SPEED MONOLOTHIC SYSTEM FOR CONTROLLED RELEASE OF DRUGS” (Matripharm Inc., priority 2011, published 2017).

Details: for numbers needed to harm: one out of N patients likely to suffer a first-time heart attack: patients in the age group of 65 and over; for risk of heart attack increased: patients prescribed the NSAID vs those who had not taken these drugs in the previous three years

Row | numbers needed to harm: one out of N patients likely to suffer a first-time heart attack [patients] | risk of heart attack increased [%] | SMILES
1 | 695 |  | CS(=O)(=O)c1ccc(C2=C(c3ccccc3)C(=O)OC2)cc1 [rofecoxib]
2 | 521 | 55 | O=C(O)Cc1ccccc1Nc1c(Cl)cccc1Cl [diclofenac]
3 | 1005 | 24 | CC(C)Cc1ccc(C(C)C(=O)O)cc1 (centres unmarked) [ibuprofen]
